This passage reports IC50, Ki and inhibition results from ChEMBL document CHEMBL4732152, “Flavonoids from Woodfordia fruticosa as potential SmltD inhibitors in the alternative biosynthetic pathway of peptidoglycan” (Bioorg Med Chem Lett, 2021).

Assay [1] is described as follows: Inhibition of Stenotrophomonas maltophilia SmltD using UDP-MurNAc-L-Ala[…] as substrate in presence of ATP incubated for 5 mins by HPLC.
A short description of assay [2]: Competitive inhibition of Stenotrophomonas maltophilia SmltD assessed as inhibition constant using ATP as substrate by Dixon plot analysis.
For assay [3], the system named is Stenotrophomonas maltophilia. Kind of assay: Non-Competitive inhibition of Stenotrophomonas maltophilia SmltD using […] as substrate by Dixon plot analysis.
The subject of assay [4] is Stenotrophomonas maltophilia. Kind of assay: Non-Competitive inhibition of Stenotrophomonas maltophilia SmltD using UDP-MurNAc-L-Ala[…] as substrate by Dixon plot analysis.

The term IC50 denotes the concentration needed to halve the response being measured. As usually defined, the Ki is a dissociation constant, usually derived from enzyme kinetics or from competition with a known ligand.

Activity calls are given as the source filed them. The calls are words filed in the database; no cut-off is given here. *1 amine or outer side, *2 acyl side, *3 side chain or, on linkers, in order; H or OH if unused. Where a SMILES comes first, the peptide text is derived from it. Bridges are numbered along the chain shown (N, C = ends). Roman numbers before positions name the chains, in order. [ ]: non-standard residue; d: D form. Actinocin(1to9) = Cc1c2oc3c(C)ccc(C(=O)[*:2])c3nc-2c(C(=O)[*:1])c(N)c1=O; NMeV = CN[C@H](C(=O)O)C(C)C; Sar = CNCC(=O)O

Consider `Cc1c2oc3c(C)ccc(C(=O)N[C@@H]4C(=O)N[C@H](C(C)C)C(=O)N5CCC[C@H]5C(=O)N(C)CC(=O)N(C)[C@@H](C(C)C)C(=O)O[C@@H]4C)c3nc-2c(C(=O)N[C@@H]2C(=O)N[C@H](C(C)C)C(=O)N3CCC[C@H]3C(=O)N(C)CC(=O)N(C)[C@@H](C(C)C)C(=O)O[C@@H]2C)c(N)c1=O` [DACTINOMYCIN] (I: T[dV]P[Sar][NMeV] / II: T[dV]P[Sar][NMeV]; ester I:1-I:C, II:1-II:C; linker I:N-II:N via Actinocin(1to9)), for which, in assay [1] (read-out: IC50), the IC50 worked out at 14600 µM.
For the compound `O=C(O)c1cc(O)c(O)c(O)c1` [GALLIC ACID], in assay [1] (read-out: IC50), the IC50 was found to be 2860 µM.
Take `O=c1c(O[C@@H]2O[C@H](CO)[C@@H](O)[C@H](O)[C@H]2O)c(-c2ccc(O)cc2)oc2cc(O)cc(O)c12` [ASTRAGALIN]: the IC50 in assay [1] (read-out: IC50) came to 1180 µM.
Still for that read-out and setting: with `O=c1c(O[C@H]2OC[C@@H](O)[C@@H](O)[C@@H]2O)c(-c2ccc(O)cc2)oc2cc(O)cc(O)c12` the figure was 2050 µM.
Turning to `O=C(OC[C@H]1O[C@@H](Oc2c(-c3ccc(O)cc3)oc3cc(O)cc(O)c3c2=O)[C@H](O)[C@@H](O)[C@@H]1O)c1cc(O)c(O)c(O)c1`, the IC50 in assay [1] (read-out: IC50) stood at 460 µM. Further, the Ki in assay [2] is 110 µM. The inhibition result in assay [3] and in assay [4] was “Active” each time.
Turning to `O=c1c(O)c(-c2ccc(O)cc2)oc2cc(O)cc(O)c12` [KAEMPFEROL], the IC50 in assay [1] (read-out: IC50) came to 2360 µM.
For `O[C@H]1[C@H](O)[C@@H](O)OC[C@H]1O`, the concentration for half-maximal inhibition (IC50) entry in assay [1] is “Not Active”.
On the same count and under the same terms, with `OC[C@H]1O[C@@H](O)[C@H](O)[C@@H](O)[C@@H]1O` [beta-D-Glucose] the entry was “Not Active”.
